Measurements as given in article PMC9241644, “Evaluation of Novel Quorum Sensing Inhibitors Targeting Auto-Inducer 2 (AI-2) for the Control of Avian Pathogenic Escherichia coli Infections in Chickens” (Microbiology Spectrum, 2022).
Values joined by “and” are separate entries in the source; they are usually repeats but may differ in a detail not shown here. Equal values may be shown once.

Legend:
Rif^R APEC O78 [1] = test: Comparative efficacy of QSI-5 and SDM in field simulated conditions (built-up floor litter); type: in vivo, Escherichia coli
Description: (§1) Chickens were monitored for clinical signs for 8 DPI. Any chickens moribund during this period were humanely euthanized and necropsied to determine bacterial load in the internal organs (liver, heart, lung, and kidney). Internal organs were aseptically collected, weighed and suspended in 1× PBS, the amount of PBS added was adjusted based on the organ size to make a suspension, the organ size and amount of PBS added were included in the final calculation of the CFU. The samples were homogenized, serially diluted 10-fold, plated on MacConkey agar (Remel, CA, USA) containing 50 μg/mL rifampicin, and incubated at 37°C for 24 h to determine the CFU/g. Pathological lesions severity in internal organs (pericarditis, perihepatitis, airsacculitis, and lung congestion) was scored as described previously ([21], [59]). At 8 DPI, the remaining chickens were humanely euthanized and necropsied, lesions were scored, and the APEC load was quantified in internal organs as described above.
To compare the efficacy of QSI-5 with an antibiotic SDM currently used in the field, chickens (n = 70) were raised on built-up floor litter in a field-simulated conditions. One-day-old broiler chickens (Case Farms Ohio Hatchery, OH, USA) were used for conducting the experiment. The optimized dose of QSI-5 (1 mg/L) and the therapeutic dose of SDM (495.323 mg/L) (0.05%) were given in drinking water daily for 7 days (starting from day 5 to day 11 of age). The volume of drinking water needed daily was determined as described above. On day 6, the chickens were infected s/c with Rif^r APEC O78 (5 × 10^6 CFU/chicken, s/c). PC (0.05% DMSO treated and infected) and NC (non-infected and non-treated) control groups were included. The mortality was recorded daily until the end of the experiment (42 days of age: slaughter age). At 8 DPI, half of the chickens from each group were necropsied, lesions were scored, and the APEC load was quantified in the internal organs as described above. The other half of the chickens were raised until day 42 to determine the impact of treatment on the body weight gain and feed intake. To calculate the FCR, body weight was measured once every week and feed intake was recorded every day. On day 42, the remaining chickens were euthanized, body weight was measured and 10 chickens from each group were randomly selected and necropsied, lesions and APEC load were assessed in the internal organs.

Rif^R APEC O78 [2] = test: Optimization of therapeutic dose of QSI-5 in drinking water, APEC-infected chickens; type: in vivo, Escherichia coli; conditions: for mortality reduction compared with PC group: PC normalized to 100%; for Mortality rate % (Nr.) / Average lesion severity, Lung / Average lesion severity, Liver / Average lesion severity, Heart / Average lesion severity, Airsac / Average APEC load, Kidney / Average APEC load, Lung / Average APEC load, Heart / Average APEC load, Liver: Table S2; for Mortality rate % (Nr.): PC 88.9 (8/9); for Average lesion severity, Lung: PC 1.11; for Average lesion severity, Liver: PC 2.11; for Average lesion severity, Heart: PC 2.78; for Average lesion severity, Airsac: PC 3.11; for Average APEC load, Kidney: PC 7.84; for Average APEC load, Lung: PC 7.93; for Average APEC load, Heart: PC 8.37; for Average APEC load, Liver: PC 8.46
Description: as §1
One-day-old broiler chickens (n = 10/group) (Case Farms Ohio Hatchery, Strasburg, OH, USA) were used in this experiment. QSI-5 was synthesized in-house in the Fuchs laboratory (College of Pharmacy, OSU) via reductive amination reaction of commercially available 3-phenylpropionaldehyde with 1-(4-methylbenzyl) piperazine in the presence of acetic acid and sodium triacetoxyborohydride (Fig. S4). QSI-5 was administered daily in drinking water containing 0.05% DMSO at doses of 1 mg/L, 5 mg/L, 10 mg/L, and 20 mg/L for seven consecutive days starting from day 4 to day 10 of age. The amount of drinking water given daily was calculated based on the age of chickens (http://www.poultryhub.org/nutrition/nutrient-requirements/water-consumption-rates-for-chickens/). Chickens were infected with Rif^r APEC O78 (5 × 10^6 CFU/chicken) on day 5 as described above. The PC (0.05% DMSO treated and infected) and NC (non-treated and non-infected) control groups were included. The clinical signs and the daily mortality were recorded for 8 DPI. Dead chickens were necropsied, and APEC load was quantified in the internal organs as mentioned above. At 8 DPI, the remaining chickens were necropsied, lesions were scored, and the APEC load was quantified in internal organs as described above.

[3] = QSI-5 and SDM residue quantification in muscle, kidney and liver (LC-MS); type: in vivo, chickens
Experimental: The safety of QSI-5 and SDM was assessed by measuring the level of drug residue in the muscle, kidney, and liver using LC-MS (CCIC, MS&P Facility, OSU) as described before ([34]). As described above, chickens were administered with the optimized dose of QSI-5 (1 mg/L) and the therapeutic dose of SDM (495.323 mg/L) (0.05%) in drinking water daily for 7 days (starting from day 5 to day 11 of age). Tissue samples were collected individually from chickens treated with QSI-5 and SDM (five chickens per group) from experimental set up as described for floor trial at 2 DPLT, 5 DPLT, and […] (slaughter age). All samples were weighed and extracted at a 400 mg/mL ratio of tissue in the extraction solution (50:50 H2O: ACN). Samples were homogenized using a probe sonicator 20 times and centrifuged at 13,000 × g for 30 min. Sixty μL of the supernatant was transferred into glass vials and dried in a SpeedVac for 1.5 h, and then resuspended in 120 μL of 25:25:50 H2O:ACN:MeOH. Standard calibration, LC system, mass spectrometer, and drug target monitoring were performed as described above. Calibration standard curves for measuring the accumulation of QSI-5 and SDM in the kidney, liver, and muscle are shown in Fig. S6A and S6B.

With `Cc1ccc(CN2CCN(CCCc3ccccc3)CC2)cc1` [QSI-5] the “Average lesion severity, Lung” value (Rif^R APEC O78 [1]; Table S3, PC 1.85) was 0.21, the “Average lesion severity, Liver” value (Rif^R APEC O78 [1]; Table S3, PC 2.52) was 1.68 and the “Average lesion severity, Airsac” value (Rif^R APEC O78 [1]; Table S3, PC 3.36) was 1.25. For the same compound, the “Average lesion severity, Heart” value (Rif^R APEC O78 [1]; Table S3, PC 3.58) was 1.93, the “Average APEC load, Liver” value (Rif^R APEC O78 [1]; Table S3, PC 7.24) was 4.95 Log CFU/ g of tissue and the “Average APEC load, Lung” value (Rif^R APEC O78 [1]; Table S3, PC 7.68) was 4.93 Log CFU/ g of tissue. For the same compound, the “Average APEC load, Kidney” value (Rif^R APEC O78 [1]; Table S3, PC 7.73) was 5.06 Log CFU/ g of tissue, the “Average APEC load, Heart” value (Rif^R APEC O78 [1]; Table S3, PC 7.92) was 5.46 Log CFU/ g of tissue and the “Mortality rate % (Nr.)” value (Rif^R APEC O78 [1]; Table S3, until 42 days of age, QSI-5 (8/63), SDM (19/65), PC 45.6 (31/68)) was 12.7%. The “reduction in mortality compared with the PC group” value (Rif^R APEC O78 [1]; built-up floor litter, QSI-5 1 mg/L, SDM 495.3 mg/L (0.05%) in drinking water 7 days, s/c APEC O78 5 × 10^6 CFU/chicken) was 88.4% and 72.2%, the “mortality reduction compared with PC group” value (shortened to “mortality reduction”) (Rif^R APEC O78 [2]; QSI-5 1 mg/L in drinking water 7 days, s/c APEC O78 5 × 10^6 CFU/chicken) was 58% and the “mortality reduction” value (Rif^R APEC O78 [2]; QSI-5 5 mg/L in drinking water 7 days) was 25%. For the same compound, the “mortality reduction” value (Rif^R APEC O78 [2]; QSI-5 10 mg/L in drinking water 7 days) was 50%, the “mortality reduction” value (Rif^R APEC O78 [2]; QSI-5 20 mg/L in drinking water 7 days) was 25% and the “Mortality rate % (Nr.)” value (Rif^R APEC O78 [2]; QSI-5 1 mg/L, (3/8)) was 37.5%. For the same compound, the “Average lesion severity, Lung” value (Rif^R APEC O78 [2]; QSI-5 1 mg/L) was 0.33, the “Average lesion severity, Liver” value (Rif^R APEC O78 [2]; QSI-5 1 mg/L) was 1.25 and the “Average lesion severity, Heart” value (Rif^R APEC O78 [2]; QSI-5 1 mg/L) was 1.63. For the same compound, the “Average lesion severity, Airsac” value (Rif^R APEC O78 [2]; QSI-5 1 mg/L) was 1.38, the “Average APEC load, Kidney” value (Rif^R APEC O78 [2]; QSI-5 1 mg/L) was 5.06 Log CFU/ g of tissue and the “Average APEC load, Lung” value (Rif^R APEC O78 [2]; QSI-5 1 mg/L) was 5.68 Log CFU/ g of tissue. For the same compound, the “Average APEC load, Heart” value (Rif^R APEC O78 [2]; QSI-5 1 mg/L) was 5.71 Log CFU/ g of tissue, the “Average APEC load, Liver” value (Rif^R APEC O78 [2]; QSI-5 1 mg/L) was 5.33 Log CFU/ g of tissue and the “Mortality rate % (Nr.)” value (Rif^R APEC O78 [2]; QSI-5 5 mg/L, (6/9)) was 66.6%. For the same compound, the “Average lesion severity, Lung” value (Rif^R APEC O78 [2]; QSI-5 5 mg/L) was 0.38, the “Average lesion severity, Liver” value (Rif^R APEC O78 [2]; QSI-5 5 mg/L) was 1.33 and the “Average lesion severity, Heart” value (Rif^R APEC O78 [2]; QSI-5 5 mg/L) was 1.89. The “Average lesion severity, Airsac” value (Rif^R APEC O78 [2]; QSI-5 5 mg/L) was 1.33, the “Average APEC load, Kidney” value (Rif^R APEC O78 [2]; QSI-5 5 mg/L) was 6.10 Log CFU/ g of tissue and the “Average APEC load, Lung” value (Rif^R APEC O78 [2]; QSI-5 5 mg/L) was 5.86 Log CFU/ g of tissue. The “Average APEC load, Heart” value (Rif^R APEC O78 [2]; QSI-5 5 mg/L) was 6.09 Log CFU/ g of tissue, the “Average APEC load, Liver” value (Rif^R APEC O78 [2]; QSI-5 5 mg/L) was 6.03 Log CFU/ g of tissue and the “Mortality rate % (Nr.)” value (Rif^R APEC O78 [2]; QSI-5 10 mg/L, (4/9)) was 44.4%. The “Average lesion severity, Lung” value (Rif^R APEC O78 [2]; QSI-5 10 mg/L) was 0.78, the “Average lesion severity, Liver” value (Rif^R APEC O78 [2]; QSI-5 10 mg/L) was 2.11 and the “Average lesion severity, Heart” value (Rif^R APEC O78 [2]; QSI-5 10 mg/L) was 2.44. The “Average lesion severity, Airsac” value (Rif^R APEC O78 [2]; QSI-5 10 mg/L) was 2.33, the “Average APEC load, Kidney” value (Rif^R APEC O78 [2]; QSI-5 10 mg/L) was 6.20 Log CFU/ g of tissue and the “Average APEC load, Lung” value (Rif^R APEC O78 [2]; QSI-5 10 mg/L) was 6.37 Log CFU/ g of tissue. For the same compound, the “Average APEC load, Heart” value (Rif^R APEC O78 [2]; QSI-5 10 mg/L) was 7.32 Log CFU/ g of tissue, the “Average APEC load, Liver” value (Rif^R APEC O78 [2]; QSI-5 10 mg/L) was 5.84 Log CFU/ g of tissue and the “Mortality rate % (Nr.)” value (Rif^R APEC O78 [2]; QSI-5 20 mg/L, (6/9)) was 66.6%. For the same compound, the “Average lesion severity, Lung” value (Rif^R APEC O78 [2]; QSI-5 20 mg/L) was 0.44, the “Average lesion severity, Liver” value (Rif^R APEC O78 [2]; QSI-5 20 mg/L) was 1.22 and the “Average lesion severity, Heart” value (Rif^R APEC O78 [2]; QSI-5 20 mg/L) was 2.11. For the same compound, the “Average lesion severity, Airsac” value (Rif^R APEC O78 [2]; QSI-5 20 mg/L) was 1.67, the “Average APEC load, Kidney” value (Rif^R APEC O78 [2]; QSI-5 20 mg/L) was 6.56 Log CFU/ g of tissue and the “Average APEC load, Lung” value (Rif^R APEC O78 [2]; QSI-5 20 mg/L) was 6.58 Log CFU/ g of tissue. The “Average APEC load, Heart” value (Rif^R APEC O78 [2]; QSI-5 20 mg/L) was 6.69 Log CFU/ g of tissue, the “Average APEC load, Liver” value (Rif^R APEC O78 [2]; QSI-5 20 mg/L) was 6.53 Log CFU/ g of tissue and the “Drug accumulation, Kidney (ppm± SD)” value ([3]; 2 DPLT) was 0.0 ± 0.0 ppm. The “Drug accumulation, Liver (ppm± SD)” value ([3]; 2 DPLT) was 0.0 ± 0.0 ppm, the “Drug accumulation, Muscle (ppm± SD)” value ([3]; 2 DPLT, drinking water 7 days (QSI-5 1 mg/L, SDM 495.323 mg/L)) was 0.0 ± 0.0 ppm and the “Drug accumulation, Kidney (ppm± SD)” value ([3]; 5 DPLT) was 0.0 ± 0.0 ppm. For the same compound, the “Drug accumulation, Liver (ppm± SD)” value ([3]; 5 DPLT) was 0.0 ± 0.0 ppm, the “Drug accumulation, Muscle (ppm± SD)” value ([3]; 5 DPLT) was 0.0 ± 0.0 ppm and the “Drug accumulation, Kidney (ppm± SD)” value ([3]; 35 DPLT (slaughter age)) was 0.0 ± 0.0 ppm. The “Drug accumulation, Liver (ppm± SD)” value ([3]; 35 DPLT (slaughter age)) was 0.0 ± 0.0 ppm and the “Drug accumulation, Muscle (ppm± SD)” value ([3]; 35 DPLT (slaughter age)) was 0.0 ± 0.0 ppm.
